Laboratory results published in the supplement of paper PMC10307832.

Key:
Test in all cases: relative viability (nuclei count vs DMSO), 5 days (fraction); higher = more cells survive
201T = test system: 201T
In short: (§1)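 Dosing by pin tool came one day after lung cancer cell lines were seeded in 1536-well plates, using either one drug or a fixed anchor-drug dose plus five library-drug doses (not always all listed) in √10 steps. After 5 days, nuclei were counted on 4× images. Relative viability is treated-well nuclei count divided by vehicle-well nuclei count, and values are medians of duplicate plates.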

SW 1573 = test system: SW 1573
In short: as §1

NCI-H460 = test system: NCI-H460
In short: as §1

NCI-H727 = test system: NCI-H727
In short: as §1

NCI-H1793 = test system: NCI-H1793
In short: as §1

HCC-44 = test system: HCC-44
In short: as §1

NCI-H2228 = test system: NCI-H2228
In short: as §1

LCLC-97TM1 = test system: LCLC-97TM1
In short: as §1

PC-14 = test system: PC-14
In short: as §1

NCI-H23 = test system: NCI-H23
In short: as §1

COR-L23 = test system: COR-L23
In short: as §1

H3255 = test system: H3255
In short: as §1

NCI-H596 = test system: NCI-H596
In short: as §1

LCLC-103H = test system: LCLC-103H
In short: as §1

LK-2 = test system: LK-2
In short: as §1

NCI-H2347 = test system: NCI-H2347
In short: as §1

LU99A = test system: LU99A
In short: as §1

LC-2-ad = test system: LC-2-ad
In short: as §1

NCI-H1563 = test system: NCI-H1563
In short: as §1

A-427 = test system: A-427
In short: as §1

`Cc1sc2c(c1C)C(c1ccc(Cl)cc1)=N[C@@H](CC(=O)OC(C)(C)C)c1nnc(C)n1-2` [JQ1] + Cc1nc(NC(=O)N2CCC[C@H]2C(N)=O)sc1-c1ccnc(C(C)(C)C(F)(F)F)c1 [Alpelisib] (partner 2 µM) gave a relative viability (201T; first compound 0.04 µM) of 1.02, a relative viability (201T; first compound 0.1265 µM) of 0.926 and a relative viability (201T; first compound 0.4 µM) of 0.939. For the same molecule, the relative viability (201T; first compound 1.265 µM) was 0.715, the relative viability (201T; first compound 4 µM) was 0.567 and the relative viability (SW 1573; first compound 0.04 µM) was 0.808. The relative viability (SW 1573; first compound 0.1265 µM) was 0.702, the relative viability (SW 1573; first compound 0.4 µM) was 0.714 and the relative viability (SW 1573; first compound 1.265 µM) was 0.439. It also gave a relative viability (SW 1573; first compound 4 µM) of 0.383, a relative viability (NCI-H460; first compound 0.04 µM) of 0.47 and a relative viability (NCI-H460; first compound 0.1265 µM) of 0.344. The relative viability (NCI-H460; first compound 0.4 µM) was 0.257, the relative viability (NCI-H460; first compound 1.265 µM) was 0.0483 and the relative viability (NCI-H460; first compound 4 µM) was 0.0414. For the same molecule, the relative viability (NCI-H727; first compound 0.04 µM) was 0.525, the relative viability (NCI-H727; first compound 0.1265 µM) was 0.668 and the relative viability (NCI-H727; first compound 0.4 µM) was 0.445. For the same molecule, the relative viability (NCI-H727; first compound 1.265 µM) was 0.231, the relative viability (NCI-H727; first compound 4 µM) was 0.222 and the relative viability (NCI-H1793; first compound 0.04 µM) was 0.653. It also gave a relative viability (NCI-H1793; first compound 0.1265 µM) of 0.781, a relative viability (NCI-H1793; first compound 0.4 µM) of 0.558 and a relative viability (NCI-H1793; first compound 1.265 µM) of 0.633. For the same molecule, the relative viability (NCI-H1793; first compound 4 µM) was 0.696, the relative viability (HCC-44; first compound 0.04 µM) was 0.809 and the relative viability (HCC-44; first compound 0.1265 µM) was 0.518. It also gave a relative viability (HCC-44; first compound 0.4 µM) of 0.37, a relative viability (HCC-44; first compound 1.265 µM) of 0.251 and a relative viability (HCC-44; first compound 4 µM) of 0.238. The relative viability (NCI-H2228; first compound 0.04 µM) was 0.644, the relative viability (NCI-H2228; first compound 0.1265 µM) was 0.602 and the relative viability (NCI-H2228; first compound 0.4 µM) was 0.504. The relative viability (NCI-H2228; first compound 1.265 µM) was 0.497, the relative viability (NCI-H2228; first compound 4 µM) was 0.451 and the relative viability (LCLC-97TM1; first compound 0.1265 µM) was 0.233. It also gave a relative viability (LCLC-97TM1; first compound 0.4 µM) of 0.232, a relative viability (LCLC-97TM1; first compound 1.265 µM) of 0.133 and a relative viability (LCLC-97TM1; first compound 4 µM) of 0.128. It also gave a relative viability (PC-14; first compound 0.04 µM) of 0.974, a relative viability (PC-14; first compound 0.1265 µM) of 0.921 and a relative viability (PC-14; first compound 0.4 µM) of 0.885. For the same molecule, the relative viability (PC-14; first compound 1.265 µM) was 0.59, the relative viability (PC-14; first compound 4 µM) was 0.351 and the relative viability (NCI-H23; first compound 0.04 µM) was 0.62. For the same molecule, the relative viability (NCI-H23; first compound 0.1265 µM) was 0.726, the relative viability (NCI-H23; first compound 0.4 µM) was 0.454 and the relative viability (NCI-H23; first compound 1.265 µM) was 0.292. The relative viability (NCI-H23; first compound 4 µM) was 0.297, the relative viability (COR-L23; first compound 0.04 µM) was 0.814 and the relative viability (COR-L23; first compound 0.1265 µM) was 0.708. For the same molecule, the relative viability (COR-L23; first compound 0.4 µM) was 0.754, the relative viability (COR-L23; first compound 1.265 µM) was 0.36 and the relative viability (COR-L23; first compound 4 µM) was 0.21. It also gave a relative viability (H3255; first compound 0.04 µM) of 0.691, a relative viability (H3255; first compound 0.1265 µM) of 0.62 and a relative viability (H3255; first compound 0.4 µM) of 0.619. It also gave a relative viability (H3255; first compound 1.265 µM) of 0.34, a relative viability (H3255; first compound 4 µM) of 0.296 and a relative viability (NCI-H596; first compound 0.04 µM) of 0.481. The relative viability (NCI-H596; first compound 0.1265 µM) was 0.499, the relative viability (NCI-H596; first compound 0.4 µM) was 0.437 and the relative viability (NCI-H596; first compound 1.265 µM) was 0.41. The relative viability (NCI-H596; first compound 4 µM) was 0.343, the relative viability (LCLC-103H; first compound 0.04 µM) was 0.957 and the relative viability (LCLC-103H; first compound 0.1265 µM) was 0.828. It also gave a relative viability (LCLC-103H; first compound 0.4 µM) of 0.751, a relative viability (LCLC-103H; first compound 1.265 µM) of 0.572 and a relative viability (LK-2; first compound 0.04 µM) of 1.05. The relative viability (LK-2; first compound 0.1265 µM) was 1.06, the relative viability (LK-2; first compound 0.4 µM) was 0.55 and the relative viability (LK-2; first compound 1.265 µM) was 0.237. For the same molecule, the relative viability (LK-2; first compound 4 µM) was 0.16, the relative viability (NCI-H2347; first compound 0.04 µM) was 0.982 and the relative viability (NCI-H2347; first compound 0.1265 µM) was 0.8. It also gave a relative viability (NCI-H2347; first compound 0.4 µM) of 0.848, a relative viability (NCI-H2347; first compound 1.265 µM) of 0.646 and a relative viability (NCI-H2347; first compound 4 µM) of 0.477. For the same molecule, the relative viability (LU99A; first compound 0.04 µM) was 0.537, the relative viability (LU99A; first compound 0.1265 µM) was 0.544 and the relative viability (LU99A; first compound 0.4 µM) was 0.424. The relative viability (LU99A; first compound 1.265 µM) was 0.307, the relative viability (LU99A; first compound 4 µM) was 0.235 and the relative viability (LC-2-ad; first compound 0.04 µM) was 0.953. For the same molecule, the relative viability (LC-2-ad; first compound 0.1265 µM) was 0.794, the relative viability (LC-2-ad; first compound 0.4 µM) was 0.54 and the relative viability (LC-2-ad; first compound 1.265 µM) was 0.289. The relative viability (LC-2-ad; first compound 4 µM) was 0.217, the relative viability (NCI-H1563; first compound 0.04 µM) was 0.846 and the relative viability (NCI-H1563; first compound 0.1265 µM) was 0.854. For the same molecule, the relative viability (NCI-H1563; first compound 0.4 µM) was 0.932, the relative viability (NCI-H1563; first compound 1.265 µM) was 0.573 and the relative viability (NCI-H1563; first compound 4 µM) was 0.613. The relative viability (A-427; first compound 0.04 µM) was 1.15, the relative viability (A-427; first compound 0.1265 µM) was 1.05 and the relative viability (A-427; first compound 0.4 µM) was 1.11. It also gave a relative viability (A-427; first compound 1.265 µM) of 0.967 and a relative viability (A-427; first compound 4 µM) of 0.731.
